Source: patent US8183383B2, “Protein tyrosine phosphatase 1B inhibitor, preparation methods and uses thereof” (Shanghai Institute of Materia Medica, Chinese Academy of …, priority 2007, dated 2012)

Biological target: T1, hPTP1B (Homo sapiens, UniProt P18031)
T1 construct: The catalytic structural domain of hPTP1B was expressed in E-coli system by a molecular biology protocol; made in house; host or cells: E. coli
T1 sequence (P18031 3-277 limits assumed): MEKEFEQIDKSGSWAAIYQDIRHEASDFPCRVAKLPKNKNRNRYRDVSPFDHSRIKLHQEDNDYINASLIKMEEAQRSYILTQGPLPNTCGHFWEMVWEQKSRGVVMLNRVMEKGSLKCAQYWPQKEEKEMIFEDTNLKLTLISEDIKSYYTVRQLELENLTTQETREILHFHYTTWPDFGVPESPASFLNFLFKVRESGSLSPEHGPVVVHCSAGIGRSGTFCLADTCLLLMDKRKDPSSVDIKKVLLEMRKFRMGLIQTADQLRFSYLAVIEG
Assay: not given
Settings: positive control; literature reference Seto et al. J. Med. Chem. 2002; cited from earlier work

Structure (SMILES)	IC50 [µM]
O=C(O)C(=O)c1ccc(OCc2ccc(COc3ccc(C(=O)C(=O)O)cc3)cc2)cc1 [4-[4-(4-oxalyl-phenoxymethyl)-benzyloxy]-phenyl-oxo-acetic acid]	5.4

System: insulin receptors (IRs) in CHO/IR cells
Assay: Effect on the phosphorylation level of insulin receptors in CHO/IR cells
Type: cell-based
Settings: CHO/IR cells, 0.21, 0.43, 0.85, 1.70 μM, 10 nM insulin stimulation, FIG. 1
Text: 1). Experimental principle: The phosphorylation levels of insulin receptors (IRs) in cells sensitive to insulin are regulated by PTK and PTPase. PTP1B is a negative regulator during the process. It can be evaluated by measuring the phosphorylation level of IRs in CHO/IR cells whether the PTP inhibitor has entered into the cells and how its effect in cells is.
2). Experimental Protocol: • 1. Cell inoculation: Cells in good growth condition were inoculated into a 6-well plate with a density of 3-4×10^5 cells/well. To each well was added 2 mL F12 culture media containing 10% FBS. • 2. Starvation: After cultivation for 24 h, to each well was added 2 mL serum-free F12 culture media. Then the plate was cultivated overnight. • 3. Administration: After removing the old culture media, to each well was added 0.9 mLserum-free F12 culture media containing the test compound, wherein 1 mM Na3VO4 and 0.1% DMSO were used as positive and negative control, respectively. The plate was incubated for 2-4 h. • 4. Insulin stimulation: To each well was added 100 μL 100 nM insulin solution so that the final concentration was 10 nM. The reaction was carried out for 10 min. • 5. Sample collection: After discarding the culture media, to each well was added 150 μL×1 loading buffer. […]
3). Experimental results: The experiment evaluated the effect of WY586s on the phosphorylation levels of insulin receptors in CHO/IR cells. […]

Structure (SMILES)	phosphorylation level of IR (p-IR)
CCOC(=O)/C(C)=C\C(C)=C\c1csc([C@H](Cc2ccc(OCc3ccccc3)cc2)NC(=O)CC2CCCCC2)n1 [WY586s]	significantly increases with the increase of the concentration of the inhibitor

Biological target: T1, hPTP1B
Assay: PTP1B inhibition test (pNPP hydrolysis, absorption at 410 nm)
Type: biochemical
Settings: recombinant hPTP1B catalytic domain 40 nM, 2 mM pNPP, pH 7.0, 2% DMSO; read-out: IC50(μM), inhibitory activity of the test compounds against PTP1B
Text: 1) Test principle: The catalytic structural domain of hPTP1B was expressed in E-coli system by a molecular biology protocol. The purified hPTP1B recombinant protein can hydrolyze the phosphoester linkage of the pNPP substrate to obtain a product which has a strong light absorption at 410 nm. Therefore, the variation of the enzyme activity and the inhibitory activity of a compound against the enzyme can be observed by directly monitoring the changes in the light absorption at 410 nm. A typical activity assay system is as follows: 50 mM Mops, PH 7.0, 1 mM EDTA, 2 mM DTT, 2 mM PNPP, 2% DMSO, 40 nM hPTP1B.
2) Measuring Index: The light absorption was dynamically measured at 410 nm for 3 min. The slope of the first-order reaction of the dynamic curve thereof was considered as the activity index of the enzymes.
3) Measurement: • 1. 1 mg sample was dissolved in 200 μL DMSO. To each wall of the A2-H11 of a 96-wells polypropylene plate, 20 μL of the solution was added, followed by addition of 80 μL DMSO. The plate was used as mother plate. • 2. To each corresponding wall of a 96-wells polypropylene plate, 2 μL of sample was added with a Biomek 2000 automation workstation. The plate was used as daughter plate for screening. • 3. To each wall of A1-D1 and E12-H12, 2 μL, DMSO was added. These walls were regarded as 100% of enzyme activity for control. • 4. To each wall of A12-D12 and E1-H1, 2 μL positive control with different concentrations (four concentrations prepared by double-fold dilution from […]) was added respectively. • 5. To each wall of A1-H12, 88 μL Assay mix was added respectively. • 6. To each wall of A1-H12, 10 μL hPTP1B was added respectively. • 7. The light absorption was measured at 410 nm for 3 min on a SpectraMAX 340 spectrometer. • 8. Exporting the output into a TXT file, and opening the file with Excel. The average of the Vmax values of A1-D1 and E12-H12 was considered as 100% of enzyme activity.
4) Results: The screening results were the % inhibitory rate against the enzyme when the compound concentration was 20 μg/mL. 1050 value was calculated according to a conventional screening when the inhibitory rate exceeded 50%. The […] value of the positive control, 4-[4-(4-oxalyl-phenoxymethyl)-benzyloxy]-phenyl-oxo-acetic acid, is 5.4 μM [Christopher T. Seto, et al. J. Med. Chem., 2002, 45, 3946-3952].

Structure (SMILES)	IC50 [µM]
CCOC(=O)/C(C)=C\C(C)=C\c1csc([C@H](Cc2ccc(OCc3ccccc3)cc2)NC(=O)C2CCCC2)n1 [WY558s]	12.7
CCOC(=O)/C(C)=C/C(C)=C/c1csc([C@H](Cc2ccc(OCc3ccccc3)cc2)NC(=O)C2CCCCC2)n1 [WY572-2]	6.38
CCOC(=O)/C(C)=C\C(C)=C\c1csc([C@H](Cc2ccc(OCc3ccsc3)cc2)NC(=O)C2CCCCC2)n1 [WY578h]	12
CCOC(=O)/C(C)=C\C(C)=C/c1csc([C@H](Cc2ccc(OCc3ccccc3)cc2)NC(=O)C2CCCCC2)n1 [WY572-4]	7.9
CCOC(=O)/C(C)=C\C(C)=C\c1csc([C@H](Cc2ccc(OCc3ccccc3)cc2)NC(=O)c2ccco2)n1 [WY556s]	> 40
CCOC(=O)/C(C)=C\C(C)=C\c1csc([C@H](Cc2ccc(OCc3ccccc3)cc2)NC(=O)CC(C)(C)C)n1 [WY560t]	20.2
CCOC(=O)/C(C)=C\C(C)=C\c1csc([C@H](Cc2ccc(O)c(Cc3ccccc3)c2)NC(=O)C2CCCCC2)n1 [WY572t]	4.47
C/C(=C/C(C)=C/c1csc([C@H](Cc2ccc(OCc3ccccc3)cc2)NC(=O)C2CCCCC2)n1)C(=O)O [WY544a]	4.4
CCOC(=O)COc1ccc(C[C@H](NC(=O)C2CCCCC2)c2nc(/C=C(C)/C=C(/C)C(=O)OCC)cs2)cc1 [WY568h]	> 40

Now from value to compound:

IC50 [µM]	Structure (SMILES)
3.44	CCOC(=O)/C(C)=C\C(C)=C\c1csc([C@H](Cc2ccc(OCc3ccccc3)cc2)NC(=O)C(=O)C2CCCCC2)n1 [WY600]
24.1	CCOC(=O)/C(C)=C\C(C)=C\c1csc([C@H](Cc2ccc(OCc3cccc(F)c3)cc2)NC(=O)C2CCCCC2)n1 [WY590h3]
> 35	CCOC(=O)/C(C)=C\C(C)=C\c1csc([C@H](Cc2ccc(Oc3ccc([N+](=O)[O-])cc3F)cc2)NC(=O)C2CCCCC2)n1 [WY621h]
2.48	CCOC(=O)/C(C)=C\C(C)=C\c1csc([C@H](Cc2ccc(OCc3ccccc3)cc2)NC(=O)CC2CCCCC2)n1 [WY586s]
8.44	CCOC(=O)/C(C)=C\C(C)=C\c1csc([C@H](Cc2ccc(OCc3ccccc3)cc2)NC(=O)C2CCCCC2=O)n1 (stereo partly shown) [WY586d]
4	C/C(=C/C(C)=C/c1nc([C@H](Cc2ccc(OCc3ccccc3)cc2)NC(=O)C2CCCCC2)sc1-c1ccccc1)C(=O)O [WY620a]
13.5	CCOC(=O)/C(C)=C\C(C)=C\c1csc([C@H](Cc2ccc(OCc3ccccc3)cc2)NC(=O)C(O)C2CCCCC2)n1 (stereo partly shown) [WY602-2]
> 35	CCOC(=O)/C(C)=C\C(C)=C\c1csc([C@H](Cc2ccc(OCc3ccc(C#N)cc3)cc2)NC(=O)C2CCCCC2)n1 [WY597h]
25.6	CCOC(=O)/C(C)=C\C(C)=C\c1csc([C@H](Cc2ccc(OCc3ccccc3)cc2)NC(=O)c2cc3ccccc3s2)n1 [WY622s]
3.97	C/C(=C/C(C)=C/c1nc([C@H](Cc2ccc(OCc3ccccc3)cc2)NC(=O)CC2CCCCC2)sc1-c1ccccc1)C(=O)O [WY634a]
6.29	CCOC(=O)/C(C)=C\C(C)=C\c1csc([C@H](Cc2ccc(OCc3ccccc3)cc2)NC(=O)N[C@@H](Cc2ccc(OCc3ccccc3)cc2)c2nc(/C=C(C)/C=C(/C)C(=O)OCC)cs2)n1 [WY951]
